# Reference: patent US20100189683A1, “Pulsatile Dosing of Gossypol for Treatment of Disease” (Ascenta Therapeutics, Inc., priority 2008, published 2010)
# Structures can show the parent of a compound that is named as a salt.
# Experiments:
# [1] = tested on: all-corners with relapsed SCLC; conditions: oral versus i.v. topotecan HCl; cited from earlier work
# [2] = molecular target: Mcl-1 (Homo sapiens, UniProt Q07820); conditions: U.S. Patent Application No. 2003/0008924; cited from earlier work
# Chain of Mcl-1 (Q07820 whole entry): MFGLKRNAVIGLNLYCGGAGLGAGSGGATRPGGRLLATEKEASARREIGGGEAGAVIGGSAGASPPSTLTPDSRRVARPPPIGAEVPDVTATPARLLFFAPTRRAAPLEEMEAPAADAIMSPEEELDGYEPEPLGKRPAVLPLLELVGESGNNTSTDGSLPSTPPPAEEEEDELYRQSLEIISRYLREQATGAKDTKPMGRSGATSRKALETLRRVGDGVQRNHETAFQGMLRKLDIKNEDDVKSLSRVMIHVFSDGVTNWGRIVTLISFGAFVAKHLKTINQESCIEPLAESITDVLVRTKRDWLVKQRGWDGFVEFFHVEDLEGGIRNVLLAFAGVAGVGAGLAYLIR
# [3] = molecular target: Bcl-2 (Homo sapiens, UniProt P10415); conditions: U.S. Patent Application No. 2003/0008924; cited from earlier work
# Chain of Bcl-2 (P10415 whole entry): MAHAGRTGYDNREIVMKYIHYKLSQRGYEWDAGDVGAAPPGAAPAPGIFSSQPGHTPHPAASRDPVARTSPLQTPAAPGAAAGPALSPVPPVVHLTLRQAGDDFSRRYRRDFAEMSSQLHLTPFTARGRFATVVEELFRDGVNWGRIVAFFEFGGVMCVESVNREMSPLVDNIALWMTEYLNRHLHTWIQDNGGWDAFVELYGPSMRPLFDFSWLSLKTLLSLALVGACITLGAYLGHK
# [4] = molecular target: Bcl-XL (Homo sapiens, UniProt Q07817); conditions: U.S. Patent Application No. 2003/0008924; cited from earlier work
# Chain of Bcl-XL (Q07817 whole entry): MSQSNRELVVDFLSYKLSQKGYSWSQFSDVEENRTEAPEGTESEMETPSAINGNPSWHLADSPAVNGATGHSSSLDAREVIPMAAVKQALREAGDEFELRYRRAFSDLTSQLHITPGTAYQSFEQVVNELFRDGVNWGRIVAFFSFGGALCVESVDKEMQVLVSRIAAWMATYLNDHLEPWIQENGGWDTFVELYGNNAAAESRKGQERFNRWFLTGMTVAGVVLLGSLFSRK
# [5] = tested on: patients with metastatic prostate cancer, hormone-refractory; test: CS-202 Phase I-II, Cohort A (hormone-refractory patients): PSA and tumor response; assay type: in vivo, human; conditions: with docetaxel and prednisone
# Excerpt: See N. Engl. J. Med. 351:1502-1512 (2004) for further details of TAX 327 clinical study.
# (“D”=docetaxel; “P”=prednisone).
# [6] = tested on: patients with histologically confirmed metastatic prostate cancer; test: CS-202 Phase I data from 9 patients (toxicity); assay type: in vivo, human; conditions: 40-60 mg BID days 1-3 every 21 days with docetaxel 75 mg/m2 and prednisone
# [7] = tested on: A549 NSCLC xenograph model; test: In vivo efficacy in the A549 NSCLC xenograft model; parameters: species or system nude mice; conditions: intermittent dosing 60 mg/kg po days 1-3 and 15-17, in combination with taxotere 30 mg/kg iv single dose
# Method: The in vivo efficacy of (−)-gossypol acetic acid co-crystals alone or in combination with taxotere (TXT) in the A549 NSCLC xenograph model is shown in FIGS. 2 and 3. About 5 million cells of A549 were inoculated into nude mice, 8 mice per dosing group. In one experiment, (−)-gossypol acetic acid co-crystals were administered at 15 mg/kg, oral dosing (po), daily for 21 days, either alone or in combination with taxotere at 8 mg/kg, iv, once a week for three weeks (FIG. 2). In another experiment, (−)-gossypol acetic acid co-crystals were administered at 60 mg/kg, po, daily for three days per week (day 1-3/week) every two weeks (days 1-3, and then days 15-17), either alone or in combination with taxotere at 30 mg/kg, iv, single dose only, once every three weeks (FIG. 3).
# [8] = tested on: men with treatment naïve CRPC; test: Single agent AT-101 administration (20-30 mg daily); assay type: in vivo, human; conditions: single agent AT-101 at 20-30 mg daily
# Excerpt: Better compliance with a 3-day dosing regimen, compared to daily for 21 of 28 days, for example, is expected.
# [9] = tested on: men with docetaxel-refractory castration-resistant prostate cancer; test: CS-202 Cohort B: AT-101 added to docetaxel/prednisone in docetaxel-refractory CRPC
# Method: An open-label non-randomized Phase I-II clinical trial (labeled CS-202) is being carried out on patients with histologically confirmed metastatic prostate cancer. Briefly, patients are divided in into two cohorts: Cohort A-Patients with rising PSA level on hormonal therapy, i.e., hormone-refractory patients, and Cohort B-Patients with PSA or disease progression on docetaxel (taxotere), i.e., docetaxel-refractory patients. All patients were treated with 40-60 mg (−)-gossypol acetic acid co-crystal 40-60 mg BID days 1-3, every 21 days, 75 mg/m2 docetaxel q 21 days and prednisone, daily per label.
# Treatment regimen in this study is: oral AT-101 40 mg BID×3 days q 3 weeks, IV taxotere 75 mg/m^2 q 3 weeks, and oral prednisone 5 mg BID daily.
# A clinical study of docetaxel and prednisone in combination with AT-101 using a pulse administration schedule in men with docetaxel-refractory castration-resistant prostate cancer (CRPC) is ongoing (see Example 4, cohort B patients). A strict definition of docetaxel refractoriness which requires that the patient have progression as measured by PSA levels, RECIST, or bone scan while receiving docetaxel (D) and prednisone (P) is being used in the study. RECIST criteria are widely-used and well known in the art. The intervention is to continue docetaxel and prednisone treatment and to add AT-101.
# [10] = tested on: patients with advanced cancer; test: Pulsatile dose administration of AT-101 b.i.d. times 3 days every other week, clinical efficacy and case summaries; assay type: in vivo, human
# Excerpt: Following pulsatile dose administration of (−)-gossypol to patients with advanced cancer, clinical efficacy (e.g., patients having stable disease for 60 days or more) was monitored. […] The case summaries are as follows:
# Patient 1 is a person diagnosed with non-small cell lung cancer (NSCLC) by bronchial biopsy in March 2005. The patient initially received the Carboplatin/paclitaxel with radiation therapy as adjuvant therapy from April to May 2005. Disease progression was diagnosed in September 2005 and treatment with erlotinib was begun in October 2005. The patient had progressive disease in January 2006. The patient started on treatment with AT-101 40 mg b.i.d. times 3 days every other week in March 2006. When the patient started on treatment with AT-101 they had extensive lymph node disease that remained stable on study drug for approximately 939 days (2.6 years). The patient's baseline signs and symptoms included: anemia, fatigue and productive cough. Their medical history includes: history of smoking, COPD, BPH, hypercholesterolemia, hypophosphatemia, RT induced esophagitis.
# Patient 2 is a person diagnosed with a neuroendocrine carcinoma by a CT guided biopsy of an abdominal mass in May 2002. The patient was initially treated with interferon alpha from September 2002 to March 2003 but the disease progressed. Subsequently, the patient was treated with an investigational VEGFR2 targeted agent, SUO11248, from August 2003 to March 2004 until progression. The patient next received interferon plus capecitabine from August 2004 to June 2005 until disease progression in July 2005. Next, the patient was treated with […] doxirubicin from July 2005 to January 2006 until disease progression in February 2006. They started on the AT-101 treatment in February 2006 and received AT-101 30 mg b.i.d. times 3 days every other week. At the start of therapy, disease was present in the liver, abdomen, and pelvis and notable for numerous mesenteric masses. These remained stable on study for 18 cycles (534 days). The patient came off study due to increased weight loss and the investigator decision to send the patient for surgery for tumor debulking. The patient's baseline signs and symptoms included tumor pain, fatigue and weight loss. The patient's medical history included: GERD, HTN, congenital pulmonary cysts, anemia, and diarrhea.
# [11] = 20 patients with measurable disease by RECIST
# [12] = AT-101 added to continued docetaxel and prednisone
# [13] = first 11 patients of Cohort B, with docetaxel and prednisone
# [14] = Patient 1, NSCLC, 40 mg b.i.d. times 3 days every other week
# [15] = Patient 2, 30 mg b.i.d. times 3 days every other week
structure (smiles),measurement,setting,value
"CC[C@@]1(O)C(=O)OCc2c1cc1n(c2=O)Cc2cc3c(CN(C)C)c(O)ccc3nc2-1 [topotecan HCl, (S)-10-[(dimethylamino)methyl]-4-ethyl-4,9-dihydroxy-1H-pyrano[3′,4′:6,7] indolizino [1,2-b] quinoline-3,14-(4H,12H)-dione monohydrochloride]",Median progression free survival (PFS),[1],13.1 weeks
same,ORR,[1],44%
"Cc1cc2c(C(C)C)c(O)c(O)c(C=O)c2c(O)c1-c1c(C)cc2c(C(C)C)c(O)c(O)c(C=O)c2c1O [Gossypol, gossypol]",Binding to Mcl-1 at the BH3 binding groove,[2],shown to bind
same,Binding to Bcl-2 at the BH3 binding groove,[3],shown to bind
same,Binding to Bcl-XL at the BH3 binding groove,[4],shown to bind
"Cc1cc2c(C(C)C)c(O)c(O)c(C=O)c2c(O)c1-c1c(C)cc2c(C(C)C)c(O)c(O)c(C=O)c2c1O [AT-101, (−)-gossypol acetic acid co-crystal]",PSA response versus time,[5]; Cohort A,PSA reductions occur early in the treatment and are long lasting
same,PSA response,[5]; first 20 patients of Cohort A,high rate of PSA response
same,Patients refractory at the onset of treatment,[5]; first 20 patients of Cohort A,only one patient out of 20 was refractory
same,Docetaxel hematological toxicity,[6],no increase in docetaxel hematological toxicity
same,Dose-limiting toxicities,[6],no dose-limiting toxicities
same,Severe gastrointestinal toxicity,[6],no severe gastrointestinal toxicity
same,Tumor volume,[7],effectively reduces tumor volume
same,RECIST SD (stable disease),[8],no RECIST SD (stable disease)
same,PSA PRs,[8]; compared with pulsatile dosing with D/P,fewer PSA PRs
same,Complete response (CR),[9]; [11],one complete response (CR)
same,PRs (RECIST),[9]; [11],4
same,Patients with major tumor shrinkage based on radiographic assessments,[9]; 20 patients with measurable disease by RECIST criteria at baseline,6/20
same,Patients who have achieved a PSA partial response (PR) (50% or greater reduction),[9]; [12],7/35
same,Patients with some PSA reduction,[9]; [12],20/35
same,PSA response kinetics,"[9]; added to a taxotere/prednisone regimen, patients of Cohort B",abrupt reversal of the PSA response (from rising to falling)
same,Reduction in tumor volume,[9]; another single patient with measurable disease,29%
same,Patients having a 30+% decline in PSA response,[9]; [13],4 patients
same,Patients having a 50+% decline in PSA response,[9]; [13],2 patients
same,Patients with the desired PSA response,[9]; [13],6 patients
same,Peak and AUC concentrations,"[9]; human, in vivo",higher peak and AUC concentrations
same,Patients on-study for 4 months or longer,[9]; of 35 patients,Eight out of the 35 patients
same,Patients on-study for 6 months or longer,[9]; of 35 patients,3 patients
same,D/P refractory patients who have had a PSA PR,[9]; patients meeting the strict definition of refractoriness,4/32
same,Tolerability,[9]; pulsatile dose administration,well tolerated
same,D/P chemoresistance,"[9]; pulsatile dose administration, some patients with CRPC",overcomes D/P chemoresistance in some patients with CRPC
same,"Responses, time-to-event plot","[9]; taxotere-refractory patients (37 eligible; 21 with measurable disease), AT-101 40 mg BID×3 days q 3 weeks added to taxotere/prednisone",multiple durable responses
same,RECIST responses,"[9]; taxotere-refractory patients, AT-101 40 mg BID×3 days q 3 weeks added to taxotere/prednisone",RECIST partial responses are observed
same,On-treatment toxicities,[10]; [14],grade 2 peripheral neuropathy
same,Time disease remained stable on study drug,[10]; [14],approximately 939 days
same,On treatment grade 1 toxicities,[10]; [15],"general body aches, nausea, flatulence, headache, fatigue, hypomagnesemia, vomiting, hypokalemia and diarrhea"
same,On treatment grade 2 toxicities,[10]; [15],"weight loss, nausea, vomiting"
same,Time disease remained stable on study,"[10]; Patient 2, neuroendocrine carcinoma, 30 mg b.i.d. times 3 days every other week, 18 cycles",534 days
same,On treatment grade 3 toxicity,"[10]; Patient 2, considered serious, determined to be unrelated to AT-101 treatment",small bowel obstruction
same,Patients with clinical benefit (prolonged progression free period of more than 1 year),"[10]; among 37 patients, b.i.d. times 3 days every other week",two patients had clinical benefit
